Publication PMC4599007, “The GH130 Family of Mannoside Phosphorylases Contains Glycoside Hydrolases That Target β-1,2-Mannosidic Linkages in Candida Mannan” (The Journal of Biological Chemistry, 2015)

Molecular target: T1, BT3780 (Bacteroides thetaiotaomicron, UniProt Q8A186)
T1 construct: gene BT_3780; signal peptide residues 1-16; residues 17-384 built in crystal (C-terminal Pro printed as 383); monomer
T1 sequence (Q8A186 17-383): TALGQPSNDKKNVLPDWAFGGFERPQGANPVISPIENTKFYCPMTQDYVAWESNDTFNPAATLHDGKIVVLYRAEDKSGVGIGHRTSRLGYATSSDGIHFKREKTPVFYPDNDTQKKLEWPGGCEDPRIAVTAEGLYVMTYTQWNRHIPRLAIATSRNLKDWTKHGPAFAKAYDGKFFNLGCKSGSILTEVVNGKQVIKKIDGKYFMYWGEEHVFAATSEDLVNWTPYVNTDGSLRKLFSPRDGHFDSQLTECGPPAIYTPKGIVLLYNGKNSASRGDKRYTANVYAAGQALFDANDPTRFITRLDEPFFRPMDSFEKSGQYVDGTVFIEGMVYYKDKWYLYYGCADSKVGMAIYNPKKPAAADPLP
Test: X-ray crystal structure, […] Å
Assay type: binding
Conditions: 0.3 M mannose in crystallisation; bound in -1 and +1 subsites of the active site

For `OC[C@H]1OC(O)[C@@H](O)[C@@H](O)[C@@H]1O` (stereo partly shown) [mannose], the “X-ray crystal structure, 1.35 Å” value was “The pocket houses two mannose residues (the crystal structure of BT3780 was obtained in the presence”.
